The test system of the experiment is P. falciparum 3D7 growth, pLDH absorbance. Description: P. falciparum 3D7 growth inhibition, dose response, strain 3D7 (AID 2305).

Consider 45 molecules from PubChem BioAssay AID2305 (GlaxoSmithKline (GSK), 2010).

As usually defined, the IC50 is the concentration at which inhibition is half-maximal. Higher therefore signals weaker potency in that assay. The molecule `COc1cccc(C2(c3cccc(OC)c3)N=C(N)N(CCCc3ccccc3)C2=O)c1` yielded an IC50 of 260 nM. For `Cc1ccc(C(=O)Nc2ccc(-c3nc4ccccc4[nH]3)cc2)cc1S(=O)(=O)N1CCOCC1` the value was 1210 nM. Take `Cc1ccc2c(OCCN3CCC(Cc4ccc5c(c4)NC(=O)CO5)CC3)cc(F)cc2n1`: the IC50 was found to be 750 nM.

Molecule `CCN(CCCN1CCCCC1)c1cc(C)nc(Nc2ccc(C)cc2Br)n1` returned an IC50 of 170 nM.

In the case of `CCSc1nnc(C2CCCN(CC(=O)Nc3cc(C(F)(F)F)ccc3Cl)C2)n1CC` (stereo not given), the IC50 came to 230 nM.

For the molecule `CN1CCN(c2ccc(-c3cccc(NC(=O)c4cccc([N+](=O)[O-])c4)c3)nn2)CC1`, the IC50 is 530 nM.

Regarding `Cc1ccc2c(NC(=O)Nc3ccc(N(C)C)cc3)cc(C)nc2c1`, the IC50 is 820 nM. As for `Cc1ccc(F)c(OCC2CCN(c3ncc(C(=O)NC4CC4)cc3Cl)CC2)c1`, the IC50 came out at 900 nM. `Cc1[nH]c(C)c(-c2ccc(Br)cc2)c(=O)c1Cl` gave an IC50 of 840 nM. For `Clc1ccc(-c2ncc(-c3ccncc3)[nH]2)cc1Cl` the value was 1060 nM. As to `CCN(CCCN1CCCCC1)c1cc(C)nc(Nc2ccc3c(c2)CCC3)n1`, the half-maximal inhibitory concentration (IC50) stood at 390 nM. With `CCCC(C)Nc1nc(C)cc(N[C@@H](CC(C)C)C(=O)NCc2cccc(F)c2)n1` (stereo not given in full), the IC50 was 1000 nM. For `COc1ccc(CNC2Cc3ccccc3C2)cc1-c1cccc(S(=O)(=O)NCCN2CCCC2)c1` the value was 760 nM; for `Cn1cnnc1Sc1ccc(CN2CCOc3ccc(C4=CCCCC4)cc3C2)o1`, 850 nM. With `CC1(CCCCN2CCC(c3c[nH]c4cnccc34)CC2)C(=O)Nc2cccc(Cl)c21` (stereo not given) the figure was 870 nM; with `CCN(CC)CCNc1ccnc2[nH]c3ccc(I)cc3c12`, 230 nM. Regarding `Cc1ccc(Nc2nnc(SCC(=O)Nc3ccc(CN4CCCC4)cc3)s2)cc1`, the IC50 was 1210 nM. For `COc1ccc2nccc(N3CCC(SCCNCc4ccc5c(n4)NC(=O)CO5)C3)c2n1` (stereo not given) the value was 800 nM.

In turn, `Cc1cc(-c2cnc(N)c(-c3ccc(N4CCN(C)CC4)cc3)c2)cc(C)c1O` had an IC50 of 1170 nM. Molecule `CCC[C@@H]([C@@H](CC1CCC(C)CC1)C(=O)N[C@@H](CO)C(=O)Nc1nccs1)N(O)C=O` (stereo not given in full) showed an IC50 of 320 nM. With `c1ccc(CN2CCCN(c3ccc4c(c3)CCN(Cc3ccc(-c5ncc[nH]5)cc3)CC4)CC2)cc1` the figure was 760 nM; with `CN(C)c1nc(NCc2ccccc2)nc(NN=Cc2cc([N+](=O)[O-])ccc2O)n1`, 690 nM; with `O=S(=O)(NC1CCN(c2ccnc3ccccc23)C1)c1ccc(OC(F)(F)F)cc1` (stereo not given), 1080 nM. On to `CC(C)C1CCc2nc(N)nc(N)c2C1` (stereo not given), for which the IC50 came out at 140 nM.

In turn, `O[C@@H](c1cccc2ccccc12)[C@@H]1CN(CCc2ccccc2)CC[C@@]1(O)c1ccccc1` yielded an IC50 of 140 nM. For `CCCCCCNC(=O)C1Cc2c([nH]c3ccc(Br)cc23)C2(CCN(Cc3ccccc3)CC2)N1` (stereo not given), the IC50 stood at 720 nM. For `CCCCCCOc1ccc(C(=O)N[C@H]2CCN(CCCCCNC(=O)/C=C/c3ccc(Cl)c(Cl)c3)C2)cc1` the value was 690 nM.

As to `NC1CCCN(Cc2cccc(-c3ccc(-c4nc5ccccc5[nH]4)cc3)c2)C1` (stereo not given), the IC50 is 720 nM. For `O=C(Nc1ccc(C(F)(F)F)cc1)NC1CCN(c2ccnc3cc(Cl)ccc23)CC1` the value was 180 nM. For `CCOC(=O)NOC(C(=O)O)c1ccccc1` (stereo not given) the value was 190 nM. Molecule `C=CCc1cc(Cc2cnc(N)nc2N)c2ccc(C)nc2c1OC` came in with an IC50 of 690 nM. In turn, `CCCCSc1c(CNCCCCCCNCc2ccc3ccccc3c2SCCCC)ccc2ccccc12` showed an IC50 of 1000 nM. With `COc1cc(NCC(CN)Cc2ccc3c(c2)OCO3)nc2ccccc12` (stereo not given) the figure was 820 nM; with `CCCCCCCCN1CCN(CCCCCCNc2c3ccccc3nc3ccccc23)CC1`, 160 nM; with `CCN1CCCC(CNC(=O)/C(=C/C=C/c2cc3cc(Cl)c(Cl)cc3[nH]2)OC)C1` (stereo not given), 890 nM. With `COc1ccc(Nc2nc(NC3CCN(Cc4ccccc4)CC3)cc(-c3ccncc3)n2)cc1` the figure was 990 nM. Regarding `COc1cc2nc(NCc3ccc(S(N)(=O)=O)cc3)nc(Nc3ccc(Oc4ccccc4)cc3)c2cc1OC`, the IC50 was found to be 440 nM. For `CCN(CC)CCNc1ccnc2c3ccccc3n(C)c12` the value was 240 nM; for `Cc1ccc2c(OCCN3CCC(Cc4cc5c(cc4F)OCC(=O)N5)CC3)cc(F)cc2n1`, 630 nM. With `CCn1cc(-c2cc(C(=O)Nc3ccc(OC)cc3C)c3ccccc3n2)c(C)n1` the figure was 980 nM; with `CCCCN(CCCC)C(=Nc1cccc(Cl)c1Cl)Nc1ccc(C#N)cc1O`, 850 nM. With `N#Cc1ccc2c(c1)CN(CCC1CCC(NC(=O)c3cc4ccccc4cc3N)CC1)CC2` (stereo not given) the figure was 1040 nM; with `O=C(NC1CCN(c2ccnc3cc(Cl)ccc23)C1)c1ccc(F)cc1` (stereo not given), 190 nM; with `CC(C)CCC[C@@H]([C@@H](CC1CCCCC1)C(=O)N[C@@H](CCCCNC(=O)OCc1ccccc1)C(=O)Nc1nccs1)N(O)C=O`, 460 nM.

Turning to `COc1cc2nc(C)nc(Nc3ccc4c(ccn4Cc4ccccc4)c3)c2cc1OC`, the IC50 is 560 nM.
